The text below walks through data of patent EP2476670A1, “Stable solid salts of ambrisentan” (Zentiva, K.S., priority 2011, dated 2012).

Data set [1] can be described thus: Solubility of ambrisentan solid forms in water at 25 °C. Particulars: approximate values. The class given is physicochemical. The method, then: Solubility of all the salts are considerably higher compared to solubility of ambrisentan in the salt free form. Table. 1 Solubility of ambrisentan solid forms in water at 25 °C
The nature of data set [2]: pKa of the ionisable groups of ambrisentan. The class given is physicochemical.

For orientation: Solubility means how much of the substance goes into solution per volume. As a reminder, the pKa is the negative logarithm of the acid dissociation constant.

Counter-ions that a name gives are not always drawn. Like-named read-outs stand apart in the source and are kept apart here.

As to `COC(c1ccccc1)(c1ccccc1)[C@H](Oc1nc(C)cc(C)n1)C(=O)O` [Ambrisentan (Form R), (S)-2-(4,6-dimethylpyrimidin-2-yloxy)-3-methoxy-3,3-diphenylpropanoic acid], the Solubility entry in data set [1] was “∼ 0.05 mg/ml”. The pKa in data set [2] (read-out: pKa of nitrogen in pyrimidine ring) was determined as 2.98 ± 0.3; in data set [2] (read-out: pKa of the carboxylic group), 0.93 ± 0.1.
For the compound `COC(c1ccccc1)(c1ccccc1)[C@H](Oc1nc(C)cc(C)n1)C(=O)O` [Ambrisentan phosphate salt, ambrisentan phosphate salt], the Solubility result in data set [1] (phosphate salt) is recorded as “∼ 0.1 mg/ml”.
As for `COC(c1ccccc1)(c1ccccc1)[C@H](Oc1nc(C)cc(C)n1)C(=O)O` [Ambrisentan sodium salt (amorphous), ambrisentan sodium salt], in data set [1] (sodium salt), the Solubility is greater than 10000 µg/mL.
Same read-out and setting: the figure for `COC(c1ccccc1)(c1ccccc1)[C@H](Oc1nc(C)cc(C)n1)C(=O)O` [Ambrisentan sodium salt (crystalline), ambrisentan sodium salt] is greater than 5000 µg/mL.
`COC(c1ccccc1)(c1ccccc1)[C@H](Oc1nc(C)cc(C)n1)C(=O)O` [Ambrisentan tert-butylammonium salt, ambrisentan tert-butylammonium salt] came in with a Solubility in data set [1] greater than 6000 µg/mL.
